Test results taken from patent publication US6821981B2, “Azaheterocyclylmethyl derivatives of 2,3-dihydro-1,4-dioxino[2,3-f]-quinoline as 5-HT1A antagonists” (Wyeth, priority 2001, dated 2004).
pIC50, pKi: −log10 of the molar value. Structures can show the parent of a compound that is named as a salt. Where two headings read alike, the source gives them in different places.

How the values were obtained:
[1] = biological target: T1, human 5-HT1A receptors (Homo sapiens, UniProt P08908); assay: [3H] 8-OH-DPAT displacement from 5-HT1A receptor; format: binding
T1 construct: expressed in transfected cells; host or cells: CHO cells
T1 sequence (P08908 1-422): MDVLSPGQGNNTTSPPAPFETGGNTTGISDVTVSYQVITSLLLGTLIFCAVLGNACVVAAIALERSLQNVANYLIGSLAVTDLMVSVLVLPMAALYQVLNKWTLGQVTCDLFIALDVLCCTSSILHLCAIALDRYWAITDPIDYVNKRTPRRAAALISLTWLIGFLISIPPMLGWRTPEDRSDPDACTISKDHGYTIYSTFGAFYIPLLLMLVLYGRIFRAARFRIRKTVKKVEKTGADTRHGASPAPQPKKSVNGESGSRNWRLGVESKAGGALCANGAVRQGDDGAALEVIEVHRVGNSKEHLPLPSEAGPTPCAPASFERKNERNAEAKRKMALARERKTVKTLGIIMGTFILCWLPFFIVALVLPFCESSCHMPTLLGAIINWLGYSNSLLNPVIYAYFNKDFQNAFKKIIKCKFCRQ
Excerpt: High affinity for the serotonin 5-HT1A receptor was established by testing the claimed compound's ability to displace [^3H] 8-OH-DPAT (dipropylaminotetralin) from the 5-HT1A serotonin receptor following a modification of the procedure of Hall et al., J. Neurochem. 44, 1685 (1985) which utilizes CHO cells stably transfected with human 5-HT1A receptors.

[2] = biological target: T2, cloned human 5-HT1A receptors (Homo sapiens, UniProt P08908); assay: 35S-GTPγS binding assay, antagonist activity versus 8-OH-DPAT; format: biochemical; conditions: for 5-HT1A Function Imax (maximum inhibitory effect): value in parentheses after IC50
T2 construct: expressed in transfected cells
T2 sequence (P08908 1-422): T1 sequence (P08908 1-422)
Experimental: Antagonist activity at 5-HT1A receptors was established by using a ^35S-GTPγS binding assay similar to that used by Lazareno and Birdsall (Br. J. Pharmacol. 109: 1120, 1993), in which the test compound's ability to affect the binding of ^35S-GTPγS to membranes containing cloned human 5-HT1A receptors was determined. Agonists produce an increase in binding whereas antagonists produce no increase but rather reverse the effects of the standard agonist 8-OH-DPAT. The test compound's maximum inhibitory effect is represented as the Imax, while its potency is defined by the IC50.

[3] = CHO cells stably transfected with human 5-HT1A receptors, [3H] 8-OH-DPAT, read-out: 5-HT1A Receptor Affinity KI
[4] = reversal of the effects of the standard agonist 8-OH-DPAT on 35S-GTPγS binding, read-out: 5-HT1A Function IC50

Compound	pKi [1, 3]	melting point [°C]	other results
Cc1ccc2c3c(ccc2n1)OCC(CN1CC=C(c2ccccc2)CC1)O3 (stereo not shown) [Example 8, 8-Methyl-2-{[4-phenyl-3,6-dihydro-1(2H)-pyridinyl]methyl}-2,3-dihydro[1,4]dioxino[2,3-f]quinoline]	8.10		
CCc1ccc2c3c(ccc2n1)OCC(CN1CCC2(CC1)C(=O)NCN2c1ccccc1)O3 (stereo not shown) (as salt: fumarate) (hydrate or solvate) [Example 9, 8-{[8-Ethyl-2,3-dihydro[1,4]dioxino[2,3-f]quinolin-2-yl]methyl}-1-phenyl-1,3,8-triazaspiro[4.5]decan-4-one]		207 to 209	
Cc1ccc2c3c(ccc2n1)OCC(CN1CCC(C(=O)c2ccc(F)cc2)CC1)O3 (stereo not shown) (as salt: fumarate) (hydrate or solvate) [Example 5, (4-Fluorophenyl)(1-{[8-methyl-2,3-dihydro[1,4]dioxino[2,3-f]quinolin-2-yl]methyl}-4-piperidinyl)methanone]		206 to 207	
Cc1ccc2c3c(ccc2n1)OCC(CN1CCCCC1)O3 (stereo not shown) (as salt: hydrochloride) (hydrate or solvate) [Example 4, 8-Methyl-2-(piperidin-1-ylmethyl)-2,3-dihydro[1,4]dioxino[2,3-f]quinoline]		278 to 280	
Cc1ccc2c3c(ccc2n1)OCC(CN1CCCCC1)O3 (stereo not shown) [Example 4, 8-Methyl-2-(piperidin-1-ylmethyl)-2,3-dihydro[1,4]dioxino[2,3-f]quinoline]	7.29		pIC50 [2, 4]: 6.32; 5-HT1A Function Imax (maximum inhibitory effect) [2]: 100
Cc1ccc2c3c(ccc2n1)OC[C@H](CN1CCC(n2c(=O)[nH]c4ccccc42)CC1)O3 [Example 3, 1-(1-{[8-Methyl-2,3-dihydro[1,4]dixino[2,3-f]quinlin-2-yl]methyl}piperidin-4-yl)-1,3-dihydro-2H-benzimidazol-2-one]	8.51		pIC50 [2, 4]: 7.18; 5-HT1A Function Imax (maximum inhibitory effect) [2]: 85.0
Cc1ccc2c3c(ccc2n1)OCC(CN1CCC(C(=O)c2ccc(F)cc2)CC1)O3 (stereo not shown) [Example 5, (4-Fluorophenyl)(1-{[8-methyl-2,3-dihydro[1,4]dioxino[2,3-f]quinolin-2-yl]methyl}-4-piperidinyl)methanone]	7.73		
Cc1ccc2c3c(ccc2n1)OCC(CN1CCC2(CC1)C(=O)NCN2c1ccccc1)O3 (stereo not shown) (as salt: fumarate) (hydrate or solvate) [Example 2, 8-{[8-Methyl-2,3-dihydro[1,4]dioxino[2,3-f]quinolin-2-yl]methyl}-1-phenyl-1,3,8-triazaspiro[4.5]decan-4-one]		199 to 201	
Cc1ccc2c3c(ccc2n1)OCC(CN1CCC(O)(c2cccc(C(F)(F)F)c2)CC1)O3 (stereo not shown) [Example 6, 1-{[8-Methyl-2,3-dihydro[1,4]dioxino[2,3-f]quinolin-2-yl]methyl}-4-[3-(trifluoromethyl)phenyl]-4-piperidinol]	8.16		
CCc1ccc2c3c(ccc2n1)OCC(CN1CCC2(CC1)C(=O)NCN2c1ccccc1)O3 (stereo not shown) [Example 9, 8-{[8-Ethyl-2,3-dihydro[1,4]dioxino[2,3-f]quinolin-2-yl]methyl}-1-phenyl-1,3,8-triazaspiro[4.5]decan-4-one]	8.55		
Cc1ccc2c3c(ccc2n1)OCC(CN1CCC(C#N)(c2ccccc2)CC1)O3 (stereo not shown) [Example 7, 1-{[8-Methyl-2,3-dihydro[1,4]dioxino[2,3-f]quinolin-2-yl]methyl}-4-phenyl-4-piperidinecarbonitrile]			pIC50 [2]: 6.35; 5-HT1A Function Imax (maximum inhibitory effect) [2]: 50; pKi [1]: 7.12
Cc1ccc2c3c(ccc2n1)OCC(CN1CCC2(CC1)C(=O)NCN2c1ccccc1)O3 (stereo not shown) [Example 2, 8-{[8-Methyl-2,3-dihydro[1,4]dioxino[2,3-f]quinolin-2-yl]methyl}-1-phenyl-1,3,8-triazaspiro[4.5]decan-4-one]	8.75		pIC50 [2, 4]: 7.19; 5-HT1A Function Imax (maximum inhibitory effect) [2]: 100
O=C1NCN(c2ccccc2)C12CCN(CC1COc3ccc4ncccc4c3O1)CC2 (stereo not shown) (as salt: fumarate) [Example 1, 8-[2,3-Dihydro[1,4]dioxino[2,3-f]quinolin-2-ylmethyl]-1-phenyl-1,3,8-triazaspiro[4.5]decan-4-one]		170	
Cc1ccc2c3c(ccc2n1)OC[C@H](CN1CCC(n2c(=O)[nH]c4ccccc42)CC1)O3 (as salt: fumarate) (hydrate or solvate) [Example 3, 1-(1-{[8-Methyl-2,3-dihydro[1,4]dixino[2,3-f]quinlin-2-yl]methyl}piperidin-4-yl)-1,3-dihydro-2H-benzimidazol-2-one]		194 to 196	
O=C1NCN(c2ccccc2)C12CCN(CC1COc3ccc4ncccc4c3O1)CC2 (stereo not shown) [Example 1, 8-[2,3-Dihydro[1,4]dioxino[2,3-f]quinolin-2-ylmethyl]-1-phenyl-1,3,8-triazaspiro[4.5]decan-4-one]	8.84		pIC50 [2, 4]: 7.26; 5-HT1A Function Imax (maximum inhibitory effect) [2]: 100
Cc1ccc2c3c(ccc2n1)OCC(CN1CCC(O)(c2cccc(C(F)(F)F)c2)CC1)O3 (stereo not shown) (as salt: fumarate) (hydrate or solvate) [Example 6, 1-{[8-Methyl-2,3-dihydro[1,4]dioxino[2,3-f]quinolin-2-yl]methyl}-4-[3-(trifluoromethyl)phenyl]-4-piperidinol]		133 to 135	
Cc1ccc2c3c(ccc2n1)OCC(CN1CC=C(c2ccccc2)CC1)O3 (stereo not shown) (as salt: fumarate) (hydrate or solvate) [Example 8, 8-Methyl-2-{[4-phenyl-3,6-dihydro-1(2H)-pyridinyl]methyl}-2,3-dihydro[1,4]dioxino[2,3-f]quinoline]		185 to 188	
Cc1ccc2c3c(ccc2n1)OCC(CN1CCC(C#N)(c2ccccc2)CC1)O3 (stereo not shown) (as salt: salt) [Example 7, 1-{[8-Methyl-2,3-dihydro[1,4]dioxino[2,3-f]quinolin-2-yl]methyl}-4-phenyl-4-piperidinecarbonitrile]		185 to 187	
